# *1 amine or outer side, *2 acyl side, *3 side chain or, on linkers, in order; H or OH if unused. Where a SMILES comes first, the peptide text is derived from it. [ ]: non-standard residue; d: D form. X1 = O=C1c2ccccc2[C@@](O)(CN(Cc2ccccc2)[*:1])N1CC(=O)[*:2]; NMeL = CN[C@@H](CC(C)C)C(=O)O
# Columns and labels:
# Type in all cases: cell-based, human
# HepG-2 cells [1] = experiment: Cell cycle analysis by PI flow cytometry
# Procedure: The four phases in the cell cycle, mitosis (M), gap 1 (G1), synthesis of DNA (S), and gap 2 (G2), can be analysized by a commonly used dye, propidium iodide (PI), which could intercalate into the major groove of double-stranded DNA and produce a highly fluorescent adduct that can be detected due to its broad emission around 600 nm. In this research, the drug-treated tumor cells were fixed overnight at 4 °C with 70% ice-cold ethanol and then treated with Rnase A/PI for 60 min at 37 °C and analyzed by flow cytometry.
# HepG-2 cells were inoculated in 6-well plates and incubated for 24 h. Then, different concentrations of compound 8 were added to the wells and incubated for the required time. The collected cells in the experimental and control groups were digested with trypsin, centrifuged (1000 r/min, 5 min), resuspended in PBS and fixed by 70% ice ethanol (3 mL) at −20 °C for 24 h. Then, cells were washed twice with PBS and resuspended in PBS (0.9 mL), then treated with 100 µL RNase (100 µg/mL) for 30 min at 37 °C. After centrifuging the mixture for 5 min, the cells were resuspended in 50 µg/mL PBS and stained with 600 µL of PI solution (Beyotime Biotechnology, Shanghai, China) for 60 min at 4 °C to stain. Finally, the physical properties of individual cells at different mitotic stages were analyzed by flow cytometry (BD Accuri C6, BD Biosciences, Franklin Lakes, NJ, USA).
# cytochrome C = experiment: Western blot of cytochrome C in the cytosol; conditions: HepG-2 cells, increasing peptide concentrations, vs control
# Text: Moreover, as mentioned previously and in others’ reports, the apoptosis of HepG-2 induced by galaxamide might be related to a mitochondria-mediated pathway. It has been known that with the decrease in the mitochondrial membrane potential, the cytochrome C in mitochondrion is released to the cytosol and can be detected. Therefore, we have also checked the content of cytochrome C in the cytosol by Western blotting to further verify the mitochondrial apoptotic pathway.
# HepG-2 cells (5 × 10^6 cells) in the medium were treated with different concentrations of compounds for the required time and were washed twice with ice-cold PBS. The cells were scraped into cell lysate buffer containing phenylmethanesulfonyl fluoride (PMSF) and transferred to a 1.5 mL centrifuge tube, then lysed for 20 min at 4 °C. After centrifuging (12,000 r/min) for 20 min, the supernatant was collected and measured using the BCA Protein Assay Kit (Beyotime Biotechnology Co. Ltd., Shanghai, China)). Protein samples were then electrophoresed on 12% SDS-polyacrylamide gels and transferred to polyvinylidene difluoride (PVDF) membranes. The membranes were then closed with 5% skim milk in Tris-buffered saline Tween 20 (TBST) (containing 50 mM Tris-HCl, 150 mM NaCl and 0.02% Tween-20) for 2 h. […]
# HepG-2 cells [2] = experiment: Intracellular Ca2+ level, Fluo-3 AM flow cytometry; conditions: 24 h treatment
# Text: It has been clear that subtle changes in Ca^2+ concentration, such as intracellular calcium overload, can regulate and trigger apoptosis by inducing the production of mitochondrial trifunctional protein [24]. In this paper, we tried to study the influence of our prepared cyclic peptide on the intracellular calcium ion concentration. The cell-permeable fluorescent dye, Fluo-3 AM, is the most commonly used indicator to detect intracellular calcium ion concentration. […] Based on this principle, intracellular calcium ion concentrations can be detected by flow cytometry. In this paper, HepG-2 cells treated with solvent and the desired concentration of compound 8 for 24 h were collected and co-incubated with Fluo-3 AM. After loading, intracellular Ca^2+ levels were measured by flow cytometry.
# Cells incubated in 6-well plates were treated in a similar way as mentioned above, and then 100 µL of Fluo-3 AM (5 µM) was added and incubated for 1 h at 37 °C away from light. After rewashing the cells, the suspended precipitate in PBS was checked by flow cytometry (excitation at 488 nm and emission at 525 nm).
# [3] = system: lactate dehydrogenase in HepG-2 cells; experiment: Lactate dehydrogenase (LDH) activity assay in cells; conditions: 48 h
# Text: The accumulation of lactate dehydrogenase can produce lactate metabolites and cause the deterioration of tumor cells. By inhibiting lactate dehydrogenase activity, the energy supply of tumor cells would be blocked, thus reducing their metastasis and progression. Therefore, in this paper, we also investigated the inhibitory activity of compound 8 on lactate dehydrogenase in HepG-2 cells. It has been known that LDH could catalyze lactic acid to generate pyruvate, which could react with 2,4-dinitrophenylhydrazine (DNPH) to form dinitrophenyl-pyruvate and form a reddish-brown product after reacting with an alkaline solution. The obtained product can be assessed by visible spectrophotometry. […]
# Lactate dehydrogenase activity of HepG-2 cells treated with compound 8 was examined by using the Lactate Dehydrogenase Kit (Beijing Solarbio Science & Technology, Beijing, China) according to the instructions for use. […] Then the other reagents in the Lactate Dehydrogenase Kit (Beyotime Biotechnology, Shanghai, China) were added according to the instructions, and the absorption of the mixture was measured by the spectrophotometer. […] The absorption of the standard solution at 450 nm was measured to plot the standard curve. […]
smiles,measurement,setting,value
"CC(C)C[C@@H]1NC(=O)CN2C(=O)c3ccccc3[C@@]2(O)CN(Cc2ccccc2)C(=O)[C@H](CC(C)C)NC(=O)[C@H](CC(C)C)N(C)C(=O)[C@H](CC(C)C)NC(=O)[C@H](CC(C)C)NC1=O [Compound 8, 3-Hydroxy-isoindolinone-cyclo-Gly-Leu-N-Me-Leu-Leu-Leu-Leu] (cyclo(LL[NMeL]L[X1]L))",4N (G2/M phase) cells,"HepG-2 cells [1]; 5.5 μM, 48 h",12.0%
same,4N (G2/M phase) cells,"HepG-2 cells [1]; 11 μM, 12 h",10.1%
same,4N (G2/M phase) cells,"HepG-2 cells [1]; 11 μM, 24 h",17.4%
same,4N (G2/M phase) cells,"HepG-2 cells [1]; 11 μM, 48 h",25.8%
same,4N (G2/M phase) cells,"HepG-2 cells [1]; 22 μM, 48 h",33.0%
same,level of cytochrome C in the cytosol,cytochrome C,increased significantly
same,Fluo-3 fluorescence intensity (intracellular Ca2+) relative to control group,HepG-2 cells [2],4.83 times
same,effect on lactate dehydrogenase activity,[3],significant decrease
